Laboratory results as given in patent US20250170101A1, “MONOACYLGLYCEROL LIPASE INHIBITORS AND USE THEREOF FOR THE TREATMENT AND MANAGEMENT OF PAIN AND RELATED CONDITIONS” (Psy Therapeutics, Inc., priority 2021, published 2025).

Legend:
[1] = Pharmacokinetic study of compounds in mice, Example 25; assay type: in vivo, male C57BL/6 mice; settings: Brain, Oral, 5 mg/kg
Procedure: Healthy male C57BL/6 mice (8-12 weeks old) weighing between 17 to 35 g were procured from Global, India. Temperature and humidity were maintained at 22±3° C. and 30-70%, respectively and illumination was controlled to give a sequence of 12 hr light and 12 hr dark cycle. Temperature and humidity were recorded by auto-controlled data logger system. All the animals were provided laboratory rodent diet. Reverse osmosis water treated with ultraviolet light was provided ad libitum.
Protocol A: Twenty-four male mice were divided into two groups as; Group 1: 30 mg/kg/IP; Plasma and brain; Number of animals=12; Animal #1-12. Group 2: 30 mg/kg/PO; Plasma and brain; Number of animals=12; Animal #13-24. […] All samples were processed for analysis by protein precipitation using acetonitrile and analyzed with fit-for-purpose LC/MS/MS method (LLOQ—2.02 ng/mL for plasma and 6.06 ng/g for brain). Pharmacokinetic parameters were calculated using the non-compartmental analysis tool of Phoenix WinNonlin®.
Protocol B: Thirty six mice were included into the study and divided in to three groups as Group 1 (n=12), Group 2 (n=12) and Group 3 (n=12) with n=2 mice per time-point design. […] Plasma and brain samples were quantified by fit-for-purpose LC-MS/MS method (LLOQ: 1.01 ng/mL for plasma and 2.02 ng/mL for brain). […]

MAGL enzyme = target: T1, MAGL enzyme (Homo sapiens, UniProt Q99685); assay: MAGL reversible inhibition assay (washout), Example 22; assay type: biochemical; design: % MAGL activity returning after washout: concentration or dose not given beside the values
T1 sequence (Q99685 1-303): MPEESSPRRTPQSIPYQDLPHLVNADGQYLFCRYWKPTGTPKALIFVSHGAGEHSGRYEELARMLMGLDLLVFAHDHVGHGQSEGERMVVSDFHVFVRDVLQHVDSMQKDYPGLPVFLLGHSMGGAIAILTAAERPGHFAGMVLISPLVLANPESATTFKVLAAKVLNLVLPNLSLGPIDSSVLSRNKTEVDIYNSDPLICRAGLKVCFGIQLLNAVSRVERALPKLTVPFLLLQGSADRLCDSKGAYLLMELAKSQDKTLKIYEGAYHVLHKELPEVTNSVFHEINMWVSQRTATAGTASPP

O=C(c1cc(O)ccc1F)N1CC2(CC(n3cc(C(F)(F)F)c(-c4ccccc4F)n3)C2)C1 (single isomer, unassigned) [Compound 473, (2-fluoro-5-hydroxyphenyl){6-[3-(o-fluorophenyl)-4-(trifluoromethyl)-1-pyrazolyl]-2-aza-2-spiro[3.3]heptyl}methanone]
AUClast [1]: 464.42 ng·h/mL
degree to which MAGL enzymatic activity returned following washout of test compounds (MAGL enzyme; pre-washout compound concentration 1 μM): 41
% MAGL activity returning after washout (MAGL enzyme; relative to control (no inhibitor before washout), immediately following 30 minute washout): <50%
